Patent US6525001B1, “Substituted pyrimidine and pyridine herbicides” (Mid-American Commercialization Corporation, priority 1997, dated 2003)

Tests used:
Test in all cases: Test B pre-/postemergence
Assay type in all cases: in vivo
Design in all cases: key: 0 is no effect; 10 is complete control
[1] = system: cocklebur (Xanthium strumarium)
In short: (§1)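 Seeds were planted and sprayed preemergence, while plants at 2 to 18 cm (1- to 4-leaf stage) were sprayed postemergence at the same time, with test chemical in a non-phytotoxic solvent mixture containing surfactant. After twelve to sixteen days in a greenhouse, injury was rated visually against untreated controls on a 0–10 scale.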

[2] = system: momingglory (Ipomoea hederacea)
In short: as §1

[3] = system: wheat (Triticum aestivum)
In short: as §1

[4] = system: bedstraw (Galium aparine)
In short: as §1

[5] = system: blackgrass (Alopecurus myosuroides)
In short: as §1

corn (Zea mays) = system: corn (Zea mays)
In short: as §1

[6] = system: sugar beet (Beta vulgaris)
In short: as §1

[7] = system: crabgrass (Digitaria sanguinalis)
In short: as §1

[8] = system: purple nutsedge (Cyperus rotundus)
In short: as §1

[9] = system: pigweed (Amaranthus retroflexus)
In short: as §1

[10] = system: velvetleaf (Abutilon theophrasti)
In short: as §1

wild oat (Avena fatua) = system: wild oat (Avena fatua)
In short: as §1

[11] = system: giant foxtail (Setaria faberii)
In short: as §1

[12] = system: broadleaf signalgrass (Brachiaria decumbens)
In short: as §1

[13] = Preemergence, Rate 62 g/ha, scale of 0 to 10

Cc1cnc(-n2ccc(C(F)(F)F)n2)nc1C(=O)c1cccc(OC(F)(F)F)c1 [Compound 66]
10: Plant response rating, Morningglory ([2]; Rate 500 g/ha, Postemergence) | Plant response rating, Blackgrass ([5]; Rate 500 g/ha, Preemergence) | Sugarbeets plant response rating ([6]; Rate 62 g/ha, Postemergence) | Sugarbeets plant response rating ([6]; Rate 125 g/ha, Postemergence) | Plant response rating, Sugarbeets ([6]; Rate 125 g/ha, Preemergence) | Plant response rating, Sugarbeets ([6]; Rate 250 g/ha, Postemergence) | Plant response rating, Sugarbeets ([6]; Rate 250 g/ha, Preemergence) | Plant response rating, Sugarbeets ([6]; Rate 500 g/ha, Postemergence) | Plant response rating, Sugarbeets ([6]; Rate 500 g/ha, Preemergence) | Plant response rating, Crabgrass ([7]; Rate 500 g/ha, Postemergence) | Plant response rating, Redroot pigweed ([9]; Rate 250 g/ha, Postemergence) | Plant response rating, Redroot pigweed ([9]; Rate 500 g/ha, Postemergence) | Plant response rating, Redroot pigweed ([9]; Rate 500 g/ha, Preemergence) | Plant response rating, B. signalgrass ([12]; Rate 500 g/ha, Preemergence)
0: Plant response rating, Cocklebur [1, 13] | Plant response rating, Cocklebur ([1]; Rate 125 g/ha, Preemergence) | Plant response rating, Cocklebur ([1]; Rate 250 g/ha, Preemergence) | Plant response rating, Wheat [3, 13] | Plant response rating, Corn (corn (Zea mays); [13]) | Plant response rating, Nutsedge [8, 13] | Nutsedge plant response rating ([8]; Rate 62 g/ha, Postemergence) | Plant response rating, Nutsedge ([8]; Rate 500 g/ha, Preemergence) | Plant response rating, Giant foxtail [11, 13]
6: Plant response rating, Bedstraw ([4]; Rate 250 g/ha, Postemergence) | Plant response rating, Blackgrass ([5]; Rate 500 g/ha, Postemergence) | Plant response rating, Crabgrass [7, 13] | Plant response rating, Velvetleaf ([10]; Rate 250 g/ha, Postemergence)
2: Plant response rating, Morningglory [2, 13] | Morningglory plant response rating ([2]; Rate 62 g/ha, Postemergence) | Wheat plant response rating ([3]; Rate 62 g/ha, Postemergence) | Wheat plant response rating ([3]; Rate 125 g/ha, Postemergence) | Plant response rating, Wheat ([3]; Rate 250 g/ha, Postemergence) | Plant response rating, Wheat ([3]; Rate 250 g/ha, Preemergence) | Bedstraw plant response rating ([4]; Rate 62 g/ha, Postemergence) | Plant response rating, Bedstraw ([4]; Rate 125 g/ha, Preemergence) | Blackgrass plant response rating ([5]; Rate 62 g/ha, Postemergence) | Corn plant response rating (corn (Zea mays); Rate 125 g/ha, Postemergence) | Plant response rating, Corn (corn (Zea mays); Rate 250 g/ha, Postemergence) | Crabgrass plant response rating ([7]; Rate 62 g/ha, Postemergence) | Plant response rating, Wild oats (wild oat (Avena fatua); [13]) | Wild oats plant response rating (wild oat (Avena fatua); Rate 62 g/ha, Postemergence) | Wild oats plant response rating (wild oat (Avena fatua); Rate 125 g/ha, Postemergence) | Plant response rating, Wild oats (wild oat (Avena fatua); Rate 250 g/ha, Postemergence) | Giant foxtail plant response rating ([11]; Rate 62 g/ha, Postemergence) | Giant foxtail plant response rating ([11]; Rate 125 g/ha, Postemergence) | Plant response rating, Giant foxtail ([11]; Rate 250 g/ha, Postemergence) | Plant response rating, Giant foxtail ([11]; Rate 250 g/ha, Preemergence) | B. signalgrass plant response rating ([12]; Rate 62 g/ha, Postemergence)
1: Plant response rating, Wheat ([3]; Rate 125 g/ha, Preemergence) | Plant response rating, Bedstraw [4, 13] | Corn plant response rating (corn (Zea mays); Rate 62 g/ha, Postemergence) | Plant response rating, Corn (corn (Zea mays); Rate 125 g/ha, Preemergence) | Plant response rating, Corn (corn (Zea mays); Rate 250 g/ha, Preemergence) | Nutsedge plant response rating ([8]; Rate 125 g/ha, Postemergence) | Plant response rating, Nutsedge ([8]; Rate 250 g/ha, Postemergence) | Plant response rating, Nutsedge ([8]; Rate 500 g/ha, Postemergence) | Plant response rating, Velvetleaf [10, 13] | Plant response rating, Giant foxtail ([11]; Rate 125 g/ha, Preemergence)
8: Plant response rating, Bedstraw ([4]; Rate 500 g/ha, Postemergence) | Plant response rating, Bedstraw ([4]; Rate 500 g/ha, Preemergence) | Plant response rating, Blackgrass ([5]; Rate 250 g/ha, Preemergence) | Plant response rating, Crabgrass ([7]; Rate 250 g/ha, Postemergence) | Redroot pigweed plant response rating ([9]; Rate 62 g/ha, Postemergence) | Plant response rating, Velvetleaf ([10]; Rate 250 g/ha, Preemergence) | Plant response rating, Velvetleaf ([10]; Rate 500 g/ha, Postemergence) | Plant response rating, Velvetleaf ([10]; Rate 500 g/ha, Preemergence)
4: Cocklebur plant response rating ([1]; Rate 125 g/ha, Postemergence) | Plant response rating, Cocklebur ([1]; Rate 250 g/ha, Postemergence) | Morningglory plant response rating ([2]; Rate 125 g/ha, Postemergence) | Velvetleaf plant response rating ([10]; Rate 62 g/ha, Postemergence) | Plant response rating, Velvetleaf ([10]; Rate 125 g/ha, Preemergence) | Plant response rating, Wild oats (wild oat (Avena fatua); Rate 125 g/ha, Preemergence) | Plant response rating, Giant foxtail ([11]; Rate 500 g/ha, Postemergence) | Plant response rating, Giant foxtail ([11]; Rate 500 g/ha, Preemergence) | Plant response rating, B. signalgrass ([12]; Rate 250 g/ha, Postemergence)
5: Plant response rating, Cocklebur ([1]; Rate 500 g/ha, Postemergence) | Plant response rating, Blackgrass ([5]; Rate 250 g/ha, Postemergence) | Velvetleaf plant response rating ([10]; Rate 125 g/ha, Postemergence) | Plant response rating, Wild oats (wild oat (Avena fatua); Rate 250 g/ha, Preemergence) | Plant response rating, Wild oats (wild oat (Avena fatua); Rate 500 g/ha, Preemergence) | Plant response rating, B. signalgrass ([12]; Rate 500 g/ha, Postemergence)
7: Crabgrass plant response rating ([7]; Rate 125 g/ha, Postemergence) | Plant response rating, Redroot pigweed [9, 13]
3: Cocklebur plant response rating ([1]; Rate 62 g/ha, Postemergence) | Plant response rating, Cocklebur ([1]; Rate 500 g/ha, Preemergence) | Plant response rating, Morningglory ([2]; Rate 125 g/ha, Preemergence) | Plant response rating, Morningglory ([2]; Rate 250 g/ha, Preemergence) | Plant response rating, Wheat ([3]; Rate 500 g/ha, Postemergence) | Plant response rating, Wheat ([3]; Rate 500 g/ha, Preemergence) | Bedstraw plant response rating ([4]; Rate 125 g/ha, Postemergence) | Plant response rating, Bedstraw ([4]; Rate 250 g/ha, Preemergence) | Plant response rating, Blackgrass [5, 13] | Blackgrass plant response rating ([5]; Rate 125 g/ha, Postemergence) | Plant response rating, Blackgrass ([5]; Rate 125 g/ha, Preemergence) | Plant response rating, Corn (corn (Zea mays); Rate 500 g/ha, Postemergence) | Plant response rating, Corn (corn (Zea mays); Rate 500 g/ha, Preemergence) | Plant response rating, Wild oats (wild oat (Avena fatua); Rate 500 g/ha, Postemergence) | B. signalgrass plant response rating ([12]; Rate 125 g/ha, Postemergence)
9: Plant response rating, Morningglory ([2]; Rate 250 g/ha, Postemergence) | Plant response rating, Morningglory ([2]; Rate 500 g/ha, Preemergence) | Plant response rating, Sugarbeets [6, 13] | Plant response rating, Crabgrass ([7]; Rate 125 g/ha, Preemergence) | Plant response rating, Crabgrass ([7]; Rate 250 g/ha, Preemergence) | Plant response rating, Crabgrass ([7]; Rate 500 g/ha, Preemergence) | Redroot pigweed plant response rating ([9]; Rate 125 g/ha, Postemergence) | Plant response rating, Redroot pigweed ([9]; Rate 125 g/ha, Preemergence) | Plant response rating, Redroot pigweed ([9]; Rate 250 g/ha, Preemergence) | B. signalgrass plant response rating ([12]; Rate 62 g/ha, Preemergence) | Plant response rating, B. signalgrass ([12]; Rate 125 g/ha, Preemergence) | Plant response rating, B. signalgrass ([12]; Rate 250 g/ha, Preemergence)
